Laboratory results published in PubChem BioAssay AID328 (DTP/NCI, 2004).
Several values for one entry are separate records, joined by “and”; a condition that tells them apart may be missing. Equal values may be shown once. Inconclusive results and toxic doses are left out. How the source made its calls: active means survival T/C of 150% or more; inactive means T/C below 125% in these data.

System: BDF1 mice, P388 leukemia ip, median survival T/C
Assay: NCI In Vivo Anticancer Drug Screen. Data for tumor model P388 Leukemia (intraperitoneal) in B6D2F1 (BDF1) mice
Settings: endpoint: median survival time, higher = longer survival
Procedure, shortened: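 Vehicle-dosed animals serve as the reference; survival of compound-dosed, tumour-implanted mice is divided by it.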

[1] = dose: 25.0 mg/kg/injection, schedule: Q01DX009 (ip), vehicle: saline with Tween-80
[2] = dose: 50.0 mg/kg/injection, schedule: Q01DX009 (ip), vehicle: saline with Tween-80
[3] = dose: 50.0 mg/kg/injection, schedule: Q04DX003 (ip), vehicle: saline with Tween-80
[4] = dose: 100.0 mg/kg/injection, schedule: Q01DX009 (ip), vehicle: saline with Tween-80
[5] = dose: 100.0 mg/kg/injection, schedule: Q04DX003 (ip), vehicle: saline with Tween-80
[6] = dose: 200.0 mg/kg/injection, schedule: Q01DX009 (ip), vehicle: saline with Tween-80
[7] = dose: 200.0 mg/kg/injection, schedule: Q04DX003 (ip), vehicle: saline with Tween-80
[8] = dose: 400.0 mg/kg/injection, schedule: Q01DX009 (ip), vehicle: saline with Tween-80
[9] = dose: 400.0 mg/kg/injection, schedule: Q04DX003 (ip), vehicle: saline with Tween-80
[10] = dose: 6.25 mg/kg/injection, schedule: Q01DX009 (ip), vehicle: water
[11] = dose: 12.5 mg/kg/injection, schedule: Q01DX009 (ip), vehicle: water
[12] = dose: 100.0 mg/kg/injection, schedule: Q01DX009 (ip), vehicle: saline
[13] = dose: 200.0 mg/kg/injection, schedule: Q01DX009 (ip), vehicle: saline

Measured: T/C

CCOC(=O)CSc1nc2nc(Cl)c(Cl)nc2[nH]1
inactive: dose: 3.12 mg/kg/injection, schedule: Q04DX003 (ip), vehicle: saline with Tween-80 112 % of control | dose: 6.25 mg/kg/injection, schedule: Q04DX003 (ip), vehicle: saline with Tween-80 102 % of control | dose: 12.5 mg/kg/injection, schedule: Q04DX003 (ip), vehicle: saline with Tween-80 100 % of control | [1] 88 % of control | dose: 25.0 mg/kg/injection, schedule: Q04DX003 (ip), vehicle: saline with Tween-80 102 % of control | [2] 106 % of control | [3] 95 % of control and 102 % of control | [4] 92 % of control | [5] 103 % of control | [6] 100 % of control | [7] 97 % of control | [8] 106 % of control | [9] 108 % of control

CC(C)c1cc(C(C)C)nc(NNc2nc(C(C)C)cc(C(C)C)n2)n1
inactive: [4] 90 % of control | [6] 90 % of control | [8] 100 % of control

OCCN(CCO)c1cc(OCc2ccccc2)cc(OCc2ccccc2)c1
inactive: [10] 103 % of control | [11] 99 % of control | dose: 25.0 mg/kg/injection, schedule: Q01DX009 (ip), vehicle: water 91 % of control and 103 % of control | dose: 50.0 mg/kg/injection, schedule: Q01DX009 (ip), vehicle: water 100 % of control | dose: 50.0 mg/kg/injection, schedule: Q04DX003 (ip), vehicle: water 100 % of control | dose: 100.0 mg/kg/injection, schedule: Q04DX003 (ip), vehicle: water 100 % of control | dose: 200.0 mg/kg/injection, schedule: Q04DX003 (ip), vehicle: water 95 % of control | dose: 400.0 mg/kg/injection, schedule: Q04DX003 (ip), vehicle: water 100 % of control

CC(=O)O[C@]1(C(C)=O)CC[C@H]2[C@@H]3C[C@H](C)C4=CC(=O)CC[C@]4(C)[C@H]3CC[C@@]21C
inactive: dose: 50.0 mg/kg/injection, schedule: Q01DX009 (ip), vehicle: Klucel (hydroxypropylcellulose) (HPC) 103 % of control | dose: 100.0 mg/kg/injection, schedule: Q01DX009 (ip), vehicle: Klucel (hydroxypropylcellulose) (HPC) 111 % of control | dose: 100.0 mg/kg/injection, schedule: Q04DX003 (ip), vehicle: other 110 % of control | dose: 200.0 mg/kg/injection, schedule: Q01DX009 (ip), vehicle: Klucel (hydroxypropylcellulose) (HPC) 94 % of control and 95 % of control | dose: 200.0 mg/kg/injection, schedule: Q04DX003 (ip), vehicle: other 100 % of control | dose: 400.0 mg/kg/injection, schedule: Q01DX009 (ip), vehicle: Klucel (hydroxypropylcellulose) (HPC) 87 % of control | dose: 400.0 mg/kg/injection, schedule: Q04DX003 (ip), vehicle: other 115 % of control

CN1C(=O)C(=O)c2ccccc21
inactive: [2] 94 % of control | [4] 97 % of control | [6] 93 % of control

CCN(CC)Cc1cc(Nc2c3ccc([N+](=O)[O-])cc3nc3ccc(OC)cc23)ccc1O
inactive: dose: 12.5 mg/kg/injection, schedule: Q04DX003 (ip), vehicle: saline 111 % of control | dose: 25.0 mg/kg/injection, schedule: Q01DX009 (ip), vehicle: saline 97 % of control | dose: 25.0 mg/kg/injection, schedule: Q04DX003 (ip), vehicle: saline 111 % of control | dose: 50.0 mg/kg/injection, schedule: Q01DX009 (ip), vehicle: saline 104 % of control | dose: 50.0 mg/kg/injection, schedule: Q04DX003 (ip), vehicle: saline 113 % of control | [12] 100 % of control | dose: 100.0 mg/kg/injection, schedule: Q04DX003 (ip), vehicle: saline 113 % of control | [13] 121 % of control | dose: 200.0 mg/kg/injection, schedule: Q04DX003 (ip), vehicle: saline 89 % of control | dose: 400.0 mg/kg/injection, schedule: Q04DX003 (ip), vehicle: saline 104 % of control

Ic1ncnc2nc[nH]c12
inactive: dose: 75.0 mg/kg/injection, schedule: Q01DX009 (ip), vehicle: Klucel (hydroxypropylcellulose) (HPC) 113 % of control | [12] 104 % of control | [5] 95 % of control | dose: 150.0 mg/kg/injection, schedule: Q01DX009 (ip), vehicle: Klucel (hydroxypropylcellulose) (HPC) 113 % of control | [13] 108 % of control | [7] 104 % of control | dose: 300.0 mg/kg/injection, schedule: Q01DX009 (ip), vehicle: Klucel (hydroxypropylcellulose) (HPC) 109 % of control | dose: 400.0 mg/kg/injection, schedule: Q01DX009 (ip), vehicle: saline 100 % of control | [9] 95 % of control

COc1ccccc1N1CCN(CC(O)COc2ccccc2C(C)=O)CC1 (stereo unspecified)
inactive: [1] 95 % of control | [2] 91 % of control | [4] 112 % of control

COc1cccc2c1C(=O)c1c(O)c3c(c(O)c1C2=O)C[C@@](O)(/C(C)=N/NC(=O)c1ccc(-c2ccccc2)cc1)C[C@@H]3OC1CC(N)C(O)C(C)O1 (stereo partly specified)
active: dose: 3.12 mg/kg/injection, schedule: Q01DX009 (ip), vehicle: water 224 % of control | [10] 157 % of control | [11] 169 % of control
inactive: dose: 0.78 mg/kg/injection, schedule: Q01DX009 (ip), vehicle: water 107 % of control | dose: 1.56 mg/kg/injection, schedule: Q01DX009 (ip), vehicle: water 122 % of control

Cc1nc(Cl)c(C(N)=O)nc1C
inactive: dose: 12.5 mg/kg/injection, schedule: Q01DX009 (ip), vehicle: saline with Tween-80 91 % of control | [1] 88 % of control and 94 % of control | [2] 97 % of control | [3] 113 % of control | [4] 90 % of control and 106 % of control | [5] 96 % of control | dose: 150.0 mg/kg/injection, schedule: Q01DX009 (ip), vehicle: saline with Tween-80 97 % of control | [7] 92 % of control | [9] 99 % of control

Cc1cc(C)c(NS(=O)(=O)c2ccc([N+](=O)[O-])cc2)c(C)c1
inactive: dose: 75.0 mg/kg/injection, schedule: Q01DX001 (ip), vehicle: saline with Tween-80 100 % of control | dose: 150.0 mg/kg/injection, schedule: Q01DX001 (ip), vehicle: saline with Tween-80 90 % of control | dose: 300.0 mg/kg/injection, schedule: Q01DX001 (ip), vehicle: saline with Tween-80 100 % of control

Cc1ccc(C[P+](c2ccccc2)(c2ccccc2)c2ccccc2)cc1
inactive: dose: 2.5 mg/kg/injection, schedule: Q01DX010 (ip), vehicle: saline 114 % of control | dose: 5.0 mg/kg/injection, schedule: Q01DX010 (ip), vehicle: saline 114 % of control | dose: 10.0 mg/kg/injection, schedule: Q01DX010 (ip), vehicle: saline 104 % of control

NC(Cc1ccc(O)cc1)C(=O)O (stereo unspecified)
inactive: [4] 100 % of control | [5] 100 % of control | [6] 92 % of control | [7] 91 % of control | [9] 95 % of control

CCOC(=O)NP(=O)(N1CC1(C)C)N1CC1(C)C (stereo unspecified)
active: dose: 31.3 mg/kg/injection, schedule: Q01DX010 (ip), vehicle: saline 175 % of control | dose: 62.5 mg/kg/injection, schedule: Q01DX010 (ip), vehicle: saline 175 % of control | dose: 125.0 mg/kg/injection, schedule: Q01DX010 (ip), vehicle: saline 200 % of control | dose: 250.0 mg/kg/injection, schedule: Q01DX010 (ip), vehicle: saline 225 % of control

O=C(C(=O)C(Br)Br)C(Br)Br
inactive: dose: 6.25 mg/kg/injection, schedule: Q01DX009 (ip), vehicle: DMSO 97 % of control

O=C(OC1C(OC(=O)C(Cl)Cl)C(OC(=O)C(Cl)Cl)C(OC(=O)C(Cl)Cl)C(OC(=O)C(Cl)Cl)C1OC(=O)C(Cl)Cl)C(Cl)Cl (stereo unspecified)
inactive: dose: 37.5 mg/kg/injection, schedule: Q01DX001 (ip), vehicle: saline sonified 95 % of control | dose: 75.0 mg/kg/injection, schedule: Q01DX001 (ip), vehicle: saline sonified 100 % of control | dose: 150.0 mg/kg/injection, schedule: Q01DX001 (ip), vehicle: saline sonified 86 % of control

CC1OC(OC2CCCc3c(O)c4c(c(O)c32)C(=O)c2ccccc2C4=O)CC(N)C1O (stereo unspecified)
inactive: dose: 0.25 mg/kg/injection, schedule: Q01DX009 (ip), vehicle: water 110 % of control | dose: 0.5 mg/kg/injection, schedule: Q01DX009 (ip), vehicle: water 105 % of control | dose: 1.0 mg/kg/injection, schedule: Q01DX009 (ip), vehicle: water 98 % of control | dose: 2.0 mg/kg/injection, schedule: Q01DX009 (ip), vehicle: water 110 % of control and 115 % of control | dose: 4.0 mg/kg/injection, schedule: Q01DX009 (ip), vehicle: water 108 % of control and 113 % of control | dose: 8.0 mg/kg/injection, schedule: Q01DX009 (ip), vehicle: water 108 % of control | dose: 16.0 mg/kg/injection, schedule: Q01DX009 (ip), vehicle: water 105 % of control
